Common to all, as to assay type: in vivo
Test [1] concerns Abuthilon theophrasti (ABUTH). The test can be described thus: Herbicidal glasshouse test, post-emergence. Conditions: POST Application, evaluated after 13 days; for damage to plant (100=total damage to plant; 0=no damage to plant): 250 g/ha. As to the method: (§1) Seeds of a variety of test species were sown in standard soil in pots (Alopecurus myosuroides (ALOMY), Setaria faberi (SETFA), Echinochloa crus-galli (ECHCG), Abuthilon theophrasti (ABUTH) and Amaranthus retoflexus (AMARE)). After cultivation for one day (pre-emergence) or after 8 days cultivation (post-emergence) under controlled conditions in a glasshouse (at 24/16° C., day/night; 14 hours light; 65% humidity), the plants were sprayed with an aqueous spray solution derived from the formulation of the technical active ingredient in acetone/water (50:50) solution containing 0.5% Tween 20 (polyoxyethelyene sorbitan monolaurate, CAS RN 9005-64-5). Compounds were applied at 250 g/ha. The test plants were then grown in a glasshouse under controlled conditions in a glasshouse (at 24/16° C., day/night; 14 hours light; 65% humidity) and watered twice daily. After 13 days for pre and post-emergence, the test was evaluated (100=total damage to plant; 0=no damage to plant).

Test [2] relates to Alopecurus myosuroides (ALOMY). The test can be described thus: Herbicidal glasshouse test, post-emergence. Conditions: POST Application, evaluated after 13 days; for damage to plant (100=total damage to plant; 0=no damage to plant): 250 g/ha. As to the method:
as §1

In test [3] the test system is Amaranthus retoflexus (AMARE). The test can be described thus: Herbicidal glasshouse test, post-emergence. To be noted: POST Application, evaluated after 13 days; for damage to plant (100=total damage to plant; 0=no damage to plant): 250 g/ha. As to the method:
as §1

Test [4] relates to Echinochloa crus-galli (ECHCG). The experiment in a line: Herbicidal glasshouse test, post-emergence. Conditions: POST Application, evaluated after 13 days; for damage to plant (100=total damage to plant; 0=no damage to plant): 250 g/ha. As to the method:
as §1

Test [5] deals with Setaria faberi (SETFA). The test can be described thus: Herbicidal glasshouse test, post-emergence. To be noted: POST Application, evaluated after 13 days; for damage to plant (100=total damage to plant; 0=no damage to plant): 250 g/ha. As to the method:
as §1

Test [6] has as its system Abuthilon theophrasti (ABUTH). The test can be described thus: Herbicidal glasshouse test, pre-emergence. To be noted: PRE Application, evaluated after 13 days; for damage to plant (100=total damage to plant; 0=no damage to plant): 250 g/ha. As to the method: as §1
Test [7] deals with Alopecurus myosuroides (ALOMY). The experiment in a line: Herbicidal glasshouse test, pre-emergence. To be noted: PRE Application, evaluated after 13 days; for damage to plant (100=total damage to plant; 0=no damage to plant): 250 g/ha. As to the method:
as §1

The test system of test [8] is Amaranthus retoflexus (AMARE). The test can be described thus: Herbicidal glasshouse test, pre-emergence. To be noted: PRE Application, evaluated after 13 days; for damage to plant (100=total damage to plant; 0=no damage to plant): 250 g/ha. As to the method:
as §1

Test [9] concerns Echinochloa crus-galli (ECHCG). The experiment in a line: Herbicidal glasshouse test, pre-emergence. To be noted: PRE Application, evaluated after 13 days; for damage to plant (100=total damage to plant; 0=no damage to plant): 250 g/ha. As to the method:
as §1

Test [10] has as its system Setaria faberi (SETFA). The experiment in a line: Herbicidal glasshouse test, pre-emergence. Conditions: PRE Application, evaluated after 13 days; for damage to plant (100=total damage to plant; 0=no damage to plant): 250 g/ha. As to the method:
as §1

In the case of `O=C1CCCC(=O)C1C(=O)c1cc2cc(F)cnc2n(-c2ccccc2Cl)c1=O` [Compound 4.28], the “damage to plant (100=total damage to plant; 0=no damage to plant)” value in [1] was 80; in test [2], 70; in test [3], 80; in test [4], 80; in the test on Setaria faberi (SETFA) [5], 80; in test [6], 100. The “damage to plant (100=total damage to plant; 0=no damage to plant)” value stood at 90 in test [7], 50 in [8], 100 in [9] and 100 in the test with Setaria faberi (SETFA) [10].

Take `COc1ccccc1-n1c(=O)c(C(=O)C2C(=O)CCCC2=O)cc2cc(F)cnc21` [Compound 4.33]: the “damage to plant (100=total damage to plant; 0=no damage to plant)” value came out at 80 in test [1]; 100 in [2]; 80 in [3]; 90 in [4]; 90 with Setaria faberi (SETFA) [5]; 100 in [6]. For the same compound, the “damage to plant (100=total damage to plant; 0=no damage to plant)” value (in test [7]; in test [8]; in test [9]; with Setaria faberi (SETFA) [10]) was 100 in each case.

With `O=C1CCCC(=O)C1C(=O)c1cc2cc(F)cnc2n(-c2ccccc2C(F)(F)F)c1=O` [Compound 4.34], the “damage to plant (100=total damage to plant; 0=no damage to plant)” value was determined as 80 in [1]; 90 in test [2]; 80 in [3]; 90 in test [4]; 80 in the test on Setaria faberi (SETFA) [5]; 100 in [6]. The “damage to plant (100=total damage to plant; 0=no damage to plant)” value (in test [7]; in test [8]; in [9]; in the test with Setaria faberi (SETFA) [10]) was 100 throughout.

Take `O=C1CCCC(=O)C1C(=O)c1cc2cc(F)cnc2n(-c2ccc(F)cc2F)c1=O` [Compound 4.35]: the “damage to plant (100=total damage to plant; 0=no damage to plant)” value in test [1] is on record as 80; in [2], 90; in [3], 90; in test [4], 90; in the test with Setaria faberi (SETFA) [5] it was 80; in test [6], 100. The “damage to plant (100=total damage to plant; 0=no damage to plant)” value in [7] is on record as 90; in test [8], 100; in [9] it was 100; in the test with Setaria faberi (SETFA) [10], 100.

For the compound `O=C1CCCC(=O)C1C(=O)c1cc2cc(F)cnc2n(-c2ccccc2[N+](=O)[O-])c1=O` [Compound 4.36], the pest or weed control at 250 g/ha in test [1] (Abutilon theophrasti, post-emergence, 312 h, read-out: damage to plant (100=total damage to plant; 0=no damage to plant)) was found to be 80%; in test [2] (Alopecurus myosuroides, post-emergence, 312 h, read-out: damage to plant (100=total damage to plant; 0=no damage to plant)), 90%; in test [3] (Amaranthus retroflexus, post-emergence, 312 h, read-out: damage to plant (100=total damage to plant; 0=no damage to plant)) it was 80%; in test [4] (Echinochloa crus-galli, post-emergence, 312 h, read-out: damage to plant (100=total damage to plant; 0=no damage to plant)), 90%; in the test with Setaria faberi (SETFA) [5] (Setaria faberi, post-emergence, 312 h, read-out: damage to plant (100=total damage to plant; 0=no damage to plant)) it was 80%; in test [6] (Abutilon theophrasti, pre-emergence, 312 h, read-out: damage to plant (100=total damage to plant; 0=no damage to plant)), 100%. Further, the pest or weed control at 250 g/ha in [7] (Alopecurus myosuroides, pre-emergence, 312 h, read-out: damage to plant (100=total damage to plant; 0=no damage to plant)) came out at 90%; in test [8] (Amaranthus retroflexus, pre-emergence, 312 h, read-out: damage to plant (100=total damage to plant; 0=no damage to plant)), 100%; in test [9] (Echinochloa crus-galli, pre-emergence, 312 h, read-out: damage to plant (100=total damage to plant; 0=no damage to plant)), 100%; with Setaria faberi (SETFA) [10] (Setaria faberi, pre-emergence, 312 h, read-out: damage to plant (100=total damage to plant; 0=no damage to plant)), 100%.

These data come from patent publication US8450243B2, “Herbicidal quinoline and 1,8-naphthyridine compounds” (Syngenta Limited, priority 2009, dated 2013).
